In publication PMC9067983, “Identification of highly selective type II kinase inhibitors with chiral peptidomimetic tails” (Journal of Enzyme Inhibition and Medicinal Chemistry, 2022):
Where a SMILES comes first, the peptide text is derived from it. [ ]: non-standard residue; d: D form. The star is where a group is joined. X1 = Cc1ccc(Nc2ncc3c(n2)N(C)C(=O)N(c2cc(C(=O)*)ccc2C)C3)cn1; Aib = CC(C)(N)C(=O)O

Tests used:
Experiment in all cases: kinase selectivity profiling
Assay type in all cases: biochemical
Conditions in all cases: 10µM ATP, read-out: % inhibition (relative to DMSO)
JAK3 = target: T1, JAK3 (Homo sapiens, UniProt P52333)
T1 construct: purchased Reaction Biology Corp
Description: (§1) Full panel kinase profiling and kinase IC50 measurement were performed by using Reaction Biology Corp. (San Diego, USA).

MKK4 = target: T2, MKK4 (Homo sapiens, UniProt P45985)
T2 construct: purchased Reaction Biology Corp
Description: as §1

PKCd = target: T3, PKCd (Homo sapiens, UniProt Q05655)
T3 construct: purchased Reaction Biology Corp
T3 sequence (Q05655 whole entry): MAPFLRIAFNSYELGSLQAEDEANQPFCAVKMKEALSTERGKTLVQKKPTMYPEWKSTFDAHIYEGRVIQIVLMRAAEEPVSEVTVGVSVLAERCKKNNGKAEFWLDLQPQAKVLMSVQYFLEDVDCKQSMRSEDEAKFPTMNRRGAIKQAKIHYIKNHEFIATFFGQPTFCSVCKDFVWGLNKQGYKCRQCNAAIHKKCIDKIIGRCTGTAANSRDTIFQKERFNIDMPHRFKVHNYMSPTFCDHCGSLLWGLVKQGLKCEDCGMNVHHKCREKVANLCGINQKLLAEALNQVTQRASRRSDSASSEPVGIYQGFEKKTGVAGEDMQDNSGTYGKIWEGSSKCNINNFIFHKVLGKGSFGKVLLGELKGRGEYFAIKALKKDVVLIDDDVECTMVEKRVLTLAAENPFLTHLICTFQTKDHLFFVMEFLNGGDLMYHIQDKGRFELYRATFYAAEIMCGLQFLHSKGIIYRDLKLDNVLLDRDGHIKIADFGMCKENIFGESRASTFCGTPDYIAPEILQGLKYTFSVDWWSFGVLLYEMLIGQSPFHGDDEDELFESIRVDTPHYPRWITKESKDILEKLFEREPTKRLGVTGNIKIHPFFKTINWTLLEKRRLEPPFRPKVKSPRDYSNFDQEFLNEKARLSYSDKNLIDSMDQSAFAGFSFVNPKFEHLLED
Description: as §1

SRMS = target: T4, SRMS (Homo sapiens, UniProt Q9H3Y6)
T4 construct: purchased Reaction Biology Corp
Description: as §1

MSK2/RPS6KA4 = target: T5, MSK2/RPS6KA4 (Homo sapiens, UniProt O75676)
T5 construct: purchased Reaction Biology Corp
Description: as §1

ALK5/TGFBR1 = target: T6, ALK5/TGFBR1 (Homo sapiens, UniProt P36897)
T6 construct: purchased Reaction Biology Corp
Description: as §1

ERN2/IRE2 = target: T7, ERN2/IRE2 (Homo sapiens, UniProt Q76MJ5)
T7 construct: purchased Reaction Biology Corp
Description: as §1

LRRK2 = target: T8, LRRK2 (Homo sapiens, UniProt Q5S007)
T8 construct: purchased Reaction Biology Corp
Description: as §1

EPHA3 = target: T9, EPHA3 (Homo sapiens, UniProt P29320)
T9 construct: purchased Reaction Biology Corp
Description: as §1

KDR/VEGFR2 = target: T10, KDR/VEGFR2 (Homo sapiens, UniProt P35968)
T10 construct: purchased Reaction Biology Corp
Description: as §1

TYK1/LTK = target: T11, TYK1/LTK (Homo sapiens, UniProt P29376)
T11 construct: purchased Reaction Biology Corp
Description: as §1

PKCzeta = target: T12, PKCzeta (Homo sapiens, UniProt Q05513)
T12 construct: purchased Reaction Biology Corp
Description: as §1

CDK9/cyclin T2 = target: T13, CDK9/cyclin T2 (Homo sapiens, UniProt P50750)
T13 construct: purchased Reaction Biology Corp
Description: as §1

MLK3/MAP3K11 = target: T14, MLK3/MAP3K11 (Homo sapiens, UniProt Q16584)
T14 construct: purchased Reaction Biology Corp
Description: as §1

PIM1 = target: T15, PIM1 (Homo sapiens, UniProt P11309)
T15 construct: purchased Reaction Biology Corp
T15 sequence (P11309 whole entry): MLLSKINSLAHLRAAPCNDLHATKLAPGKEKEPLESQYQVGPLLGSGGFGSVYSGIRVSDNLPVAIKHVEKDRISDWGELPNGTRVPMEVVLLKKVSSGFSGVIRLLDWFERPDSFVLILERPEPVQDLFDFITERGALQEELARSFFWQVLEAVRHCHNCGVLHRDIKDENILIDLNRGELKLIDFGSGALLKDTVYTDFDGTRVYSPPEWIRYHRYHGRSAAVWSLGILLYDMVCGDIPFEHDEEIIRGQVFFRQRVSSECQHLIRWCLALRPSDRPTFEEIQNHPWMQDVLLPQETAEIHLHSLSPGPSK
Description: as §1

p70S6K/RPS6KB1 = target: T16, p70S6K/RPS6KB1 (Homo sapiens, UniProt P23443)
T16 construct: purchased Reaction Biology Corp
Description: as §1

MINK/MINK1 = target: T17, MINK/MINK1 (Homo sapiens, UniProt Q8N4C8)
T17 construct: purchased Reaction Biology Corp
Description: as §1

MEK1 = target: T18, MEK1 (Homo sapiens, UniProt Q02750)
T18 construct: purchased Reaction Biology Corp
Description: as §1

MEK5 = target: T19, MEK5 (Homo sapiens, UniProt Q13163)
T19 construct: purchased Reaction Biology Corp
Description: as §1

DYRK3 = target: T20, DYRK3 (Homo sapiens, UniProt O43781)
T20 construct: purchased Reaction Biology Corp
Description: as §1

LATS1 = target: T21, LATS1 (Homo sapiens, UniProt O95835)
T21 construct: purchased Reaction Biology Corp
Description: as §1

PDGFRb = target: T22, PDGFRb (Homo sapiens, UniProt P09619)
T22 construct: purchased Reaction Biology Corp
Description: as §1

PKCb2 = target: T23, PKCb2 (Homo sapiens, UniProt P05771)
T23 construct: purchased Reaction Biology Corp
Description: as §1

MEK3 = target: T24, MEK3 (Homo sapiens, UniProt P46734)
T24 construct: purchased Reaction Biology Corp
Description: as §1

MLK2/MAP3K10 = target: T25, MLK2/MAP3K10 (Homo sapiens, UniProt Q02779)
T25 construct: purchased Reaction Biology Corp
Description: as §1

JAK2 = target: T26, JAK2 (Homo sapiens, UniProt O60674)
T26 construct: purchased Reaction Biology Corp
Description: as §1

RSK1 = target: T27, RSK1 (Homo sapiens, UniProt Q15418)
T27 construct: purchased Reaction Biology Corp
Description: as §1

ULK3 = target: T28, ULK3 (Homo sapiens, UniProt Q6PHR2)
T28 construct: purchased Reaction Biology Corp
Description: as §1

CDK14/cyclin Y (PFTK1) = target: T29, CDK14/cyclin Y (PFTK1) (Homo sapiens, UniProt O94921)
T29 construct: purchased Reaction Biology Corp
Description: as §1

AKT1 = target: T30, AKT1 (Homo sapiens, UniProt P31749)
T30 construct: purchased Reaction Biology Corp
T30 sequence (P31749 whole entry): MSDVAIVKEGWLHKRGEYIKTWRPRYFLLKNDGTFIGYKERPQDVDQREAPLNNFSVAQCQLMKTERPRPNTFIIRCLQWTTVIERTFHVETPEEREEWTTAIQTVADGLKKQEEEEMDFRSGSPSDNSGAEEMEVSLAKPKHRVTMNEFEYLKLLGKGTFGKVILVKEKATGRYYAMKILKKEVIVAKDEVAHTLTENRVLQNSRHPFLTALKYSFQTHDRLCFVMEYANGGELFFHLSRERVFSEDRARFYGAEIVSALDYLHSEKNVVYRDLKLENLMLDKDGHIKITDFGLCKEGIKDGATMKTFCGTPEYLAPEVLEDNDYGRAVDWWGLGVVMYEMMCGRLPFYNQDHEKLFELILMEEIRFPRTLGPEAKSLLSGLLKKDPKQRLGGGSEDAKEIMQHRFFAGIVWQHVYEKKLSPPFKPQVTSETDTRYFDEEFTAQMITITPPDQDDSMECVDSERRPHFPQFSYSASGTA
Description: as §1

ZAK/MLTK = target: T31, ZAK/MLTK (Homo sapiens, UniProt Q9NYL2)
T31 construct: purchased Reaction Biology Corp
T31 sequence (Q9NYL2 whole entry): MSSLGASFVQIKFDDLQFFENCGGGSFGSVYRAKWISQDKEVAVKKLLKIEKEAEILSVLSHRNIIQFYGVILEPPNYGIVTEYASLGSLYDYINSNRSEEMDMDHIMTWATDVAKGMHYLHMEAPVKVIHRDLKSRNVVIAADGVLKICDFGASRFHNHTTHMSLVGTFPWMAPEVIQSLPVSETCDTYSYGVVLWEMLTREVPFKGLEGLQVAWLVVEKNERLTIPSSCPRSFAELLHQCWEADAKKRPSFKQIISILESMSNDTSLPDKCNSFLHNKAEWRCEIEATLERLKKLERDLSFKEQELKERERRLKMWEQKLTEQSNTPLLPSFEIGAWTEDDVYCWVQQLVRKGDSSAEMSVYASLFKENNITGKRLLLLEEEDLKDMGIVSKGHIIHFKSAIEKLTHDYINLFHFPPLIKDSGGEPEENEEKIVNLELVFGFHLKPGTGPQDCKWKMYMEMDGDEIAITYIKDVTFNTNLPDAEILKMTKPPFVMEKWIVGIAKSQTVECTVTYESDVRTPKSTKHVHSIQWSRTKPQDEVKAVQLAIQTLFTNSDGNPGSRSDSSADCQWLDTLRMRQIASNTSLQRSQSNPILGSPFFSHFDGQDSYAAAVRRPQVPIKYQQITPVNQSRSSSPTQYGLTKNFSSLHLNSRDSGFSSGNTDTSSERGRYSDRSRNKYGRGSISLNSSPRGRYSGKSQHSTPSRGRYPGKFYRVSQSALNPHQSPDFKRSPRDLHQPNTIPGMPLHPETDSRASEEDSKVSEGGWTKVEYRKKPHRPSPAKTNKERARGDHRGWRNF
Description: as §1

NEK9 = target: T32, NEK9 (Homo sapiens, UniProt Q8TD19)
T32 construct: purchased Reaction Biology Corp
T32 sequence (Q8TD19 whole entry): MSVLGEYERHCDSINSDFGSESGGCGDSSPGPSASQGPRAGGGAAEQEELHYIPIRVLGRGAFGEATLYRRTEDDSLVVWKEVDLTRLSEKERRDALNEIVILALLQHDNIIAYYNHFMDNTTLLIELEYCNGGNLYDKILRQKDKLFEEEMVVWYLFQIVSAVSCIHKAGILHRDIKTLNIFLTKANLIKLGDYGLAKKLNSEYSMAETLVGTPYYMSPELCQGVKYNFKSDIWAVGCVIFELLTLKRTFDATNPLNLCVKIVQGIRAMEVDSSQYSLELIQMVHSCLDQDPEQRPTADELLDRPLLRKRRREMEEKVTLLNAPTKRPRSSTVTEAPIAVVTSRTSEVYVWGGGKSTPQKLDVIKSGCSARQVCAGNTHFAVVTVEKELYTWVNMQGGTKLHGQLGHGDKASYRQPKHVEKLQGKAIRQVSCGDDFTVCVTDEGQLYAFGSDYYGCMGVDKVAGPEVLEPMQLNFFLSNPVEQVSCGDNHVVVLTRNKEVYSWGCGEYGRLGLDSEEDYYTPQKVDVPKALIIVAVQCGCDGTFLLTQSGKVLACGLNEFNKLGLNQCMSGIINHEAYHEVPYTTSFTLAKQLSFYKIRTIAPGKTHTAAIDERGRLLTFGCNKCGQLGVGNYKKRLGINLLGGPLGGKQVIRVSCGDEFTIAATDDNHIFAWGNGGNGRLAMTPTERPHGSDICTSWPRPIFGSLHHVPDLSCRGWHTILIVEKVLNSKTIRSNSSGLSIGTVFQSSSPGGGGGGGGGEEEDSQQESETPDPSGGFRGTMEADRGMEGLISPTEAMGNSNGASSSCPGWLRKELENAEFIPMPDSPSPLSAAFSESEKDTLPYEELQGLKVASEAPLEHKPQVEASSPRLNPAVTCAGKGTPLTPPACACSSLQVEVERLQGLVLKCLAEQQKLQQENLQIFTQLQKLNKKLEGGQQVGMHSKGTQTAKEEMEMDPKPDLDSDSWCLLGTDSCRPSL
Description: as §1

OSR1/OXSR1 = target: T33, OSR1/OXSR1 (Homo sapiens, UniProt O95747)
T33 construct: purchased Reaction Biology Corp
Description: as §1

TNIK = target: T34, TNIK (Homo sapiens, UniProt Q9UKE5)
T34 construct: purchased Reaction Biology Corp
Description: as §1

PAK1 = target: T35, PAK1 (Homo sapiens, UniProt Q13153)
T35 construct: purchased Reaction Biology Corp
T35 sequence (Q13153 whole entry): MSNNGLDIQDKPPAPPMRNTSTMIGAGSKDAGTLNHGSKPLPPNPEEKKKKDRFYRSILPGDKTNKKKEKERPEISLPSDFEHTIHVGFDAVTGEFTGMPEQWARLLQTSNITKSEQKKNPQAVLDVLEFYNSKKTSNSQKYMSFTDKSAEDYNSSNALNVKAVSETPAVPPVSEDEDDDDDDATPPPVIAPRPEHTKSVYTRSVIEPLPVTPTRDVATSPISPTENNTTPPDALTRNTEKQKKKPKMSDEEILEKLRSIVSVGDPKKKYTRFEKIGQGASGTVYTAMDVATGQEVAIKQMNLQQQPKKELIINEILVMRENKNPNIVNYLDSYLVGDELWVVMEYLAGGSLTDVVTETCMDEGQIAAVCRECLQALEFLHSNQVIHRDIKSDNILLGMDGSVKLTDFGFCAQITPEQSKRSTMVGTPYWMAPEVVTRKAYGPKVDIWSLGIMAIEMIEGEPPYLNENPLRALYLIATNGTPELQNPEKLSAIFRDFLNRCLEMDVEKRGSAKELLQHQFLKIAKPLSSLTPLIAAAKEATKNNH
Description: as §1

VRK1 = target: T36, VRK1 (Homo sapiens, UniProt Q99986)
T36 construct: purchased Reaction Biology Corp
Description: as §1

c-MER = target: T37, c-MER (Homo sapiens, UniProt Q12866)
T37 construct: purchased Reaction Biology Corp
T37 sequence (Q12866 21-999): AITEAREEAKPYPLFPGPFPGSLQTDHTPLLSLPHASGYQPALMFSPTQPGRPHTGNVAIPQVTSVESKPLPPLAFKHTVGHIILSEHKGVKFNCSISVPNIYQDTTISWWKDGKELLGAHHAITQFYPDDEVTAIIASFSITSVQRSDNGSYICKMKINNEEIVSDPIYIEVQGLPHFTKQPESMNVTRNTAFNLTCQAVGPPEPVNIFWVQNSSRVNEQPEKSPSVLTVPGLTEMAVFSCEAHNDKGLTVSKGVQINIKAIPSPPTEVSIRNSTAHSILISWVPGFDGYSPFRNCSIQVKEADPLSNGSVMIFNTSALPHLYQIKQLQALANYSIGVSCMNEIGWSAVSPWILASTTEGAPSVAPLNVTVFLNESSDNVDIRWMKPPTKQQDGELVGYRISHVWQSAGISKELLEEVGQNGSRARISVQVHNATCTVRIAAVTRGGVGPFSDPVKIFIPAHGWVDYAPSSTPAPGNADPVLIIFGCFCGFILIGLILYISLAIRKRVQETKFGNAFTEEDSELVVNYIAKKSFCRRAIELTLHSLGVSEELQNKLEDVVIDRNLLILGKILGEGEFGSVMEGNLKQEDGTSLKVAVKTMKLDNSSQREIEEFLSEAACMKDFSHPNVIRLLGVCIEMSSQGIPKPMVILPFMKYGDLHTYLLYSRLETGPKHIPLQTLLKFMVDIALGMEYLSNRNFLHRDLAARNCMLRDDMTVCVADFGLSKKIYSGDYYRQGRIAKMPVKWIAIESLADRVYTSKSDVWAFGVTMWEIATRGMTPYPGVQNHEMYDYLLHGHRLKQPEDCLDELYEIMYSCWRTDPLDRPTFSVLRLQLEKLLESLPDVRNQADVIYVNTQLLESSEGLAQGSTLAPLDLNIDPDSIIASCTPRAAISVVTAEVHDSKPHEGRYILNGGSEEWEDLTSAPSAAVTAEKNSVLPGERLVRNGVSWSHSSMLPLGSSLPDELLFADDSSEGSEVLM
Description: as §1

CK1a1 = target: T38, CK1a1 (Homo sapiens, UniProt P48729)
T38 construct: purchased Reaction Biology Corp
Description: as §1

MAPKAPK2 = target: T39, MAPKAPK2 (Homo sapiens, UniProt P49137)
T39 construct: purchased Reaction Biology Corp
Description: as §1

Lyn = target: T40, Lyn (Homo sapiens, UniProt P07948)
T40 construct: purchased Reaction Biology Corp
Description: as §1

GSK3b = target: T41, GSK3b (Homo sapiens, UniProt P49841)
T41 construct: purchased Reaction Biology Corp
Description: as §1

RIPK5 = target: T42, RIPK5 (Homo sapiens, UniProt Q6XUX3)
T42 construct: purchased Reaction Biology Corp
Description: as §1

PKCtheta = target: T43, PKCtheta (Homo sapiens, UniProt Q04759)
T43 construct: purchased Reaction Biology Corp
Description: as §1

## Cc1ccc(Nc2ncc3c(n2)N(C)C(=O)N(c2cc(C(=O)N[C@H](C(=O)N4CCC[C@H]4C(=O)NC(C)(C)C(=O)N[C@@H](CC(C)C)C(=O)N(C)C)C(C)C)ccc2C)C3)cn1 [7a, (S)-N-(1-(((S)-1-(dimethylamino)-4-methyl-1-oxopentan-2-yl)amino)-2-methyl-1-oxopropan-2-yl)-1-((4-methyl-3-(1-methyl-7-((6-methylpyridin-3-yl)amino)-2-oxo-1,4-dihydropyrimido[4,5-d]pyrimidin-3(2H)-yl)benzoyl)-L-valyl)pyrrolidine-2-carboxamide] (X1-VP[Aib]L-NMe2)
JAK3
  inhibition at 1 µM: 0%
MKK4
  inhibition at 1 µM: 2%
PKCd
  inhibition at 1 µM: 0%
SRMS
  inhibition at 1 µM: 4%
MSK2/RPS6KA4
  inhibition at 1 µM: 9%
ALK5/TGFBR1
  inhibition at 1 µM: 0%
ERN2/IRE2
  inhibition at 1 µM: 2%
LRRK2
  inhibition at 1 µM: 0%
EPHA3
  inhibition at 1 µM: 25%
KDR/VEGFR2
  inhibition at 1 µM: 12%
TYK1/LTK
  inhibition at 1 µM: 0%
PKCzeta
  inhibition at 1 µM: 0%
CDK9/cyclin T2
  inhibition at 1 µM: 0%
MLK3/MAP3K11
  inhibition at 1 µM: 34%
PIM1
  inhibition at 1 µM: 2%
p70S6K/RPS6KB1
  inhibition at 1 µM: 0%
MINK/MINK1
  inhibition at 1 µM: 2%
MEK1
  inhibition at 1 µM: 8%
MEK5
  inhibition at 1 µM: 50%
DYRK3
  inhibition at 1 µM: 23%
LATS1
  inhibition at 1 µM: 4%
PDGFRb
  inhibition at 1 µM: 48%
PKCb2
  inhibition at 1 µM: 0%
MEK3
  inhibition at 1 µM: 0%
MLK2/MAP3K10
  inhibition at 1 µM: 16%
JAK2
  inhibition at 1 µM: 11%
RSK1
  inhibition at 1 µM: 17%
ULK3
  inhibition at 1 µM: 0%
CDK14/cyclin Y (PFTK1)
  inhibition at 1 µM: 6%
AKT1
  inhibition at 1 µM: 8%
ZAK/MLTK
  inhibition at 1 µM: 14%
NEK9
  inhibition at 1 µM: 8%
OSR1/OXSR1
  inhibition at 1 µM: 6%
TNIK
  inhibition at 1 µM: 6%
PAK1
  inhibition at 1 µM: 5%
VRK1
  inhibition at 1 µM: 0%
c-MER
  inhibition at 1 µM: 1%
CK1a1
  inhibition at 1 µM: 0%
MAPKAPK2
  inhibition at 1 µM: 4%
Lyn
  inhibition at 1 µM: 73%
GSK3b
  inhibition at 1 µM: 0%
RIPK5
  inhibition at 1 µM: 0%
PKCtheta
  inhibition at 1 µM: 0%
